Among the data in ChEMBL document CHEMBL3734745, “Synthesis of six mexiletine derivatives with isoindolines attached as potential antioxidants and their evaluation as cardioprotective agents” (Medchemcomm, 2015) are Activity values, retold here.

The species entered for one data set is Rattus norvegicus. Nature of the data set: (§1) Cardio-protective anti-ischemic activity in rat H9c2(2-1) cells assessed as reduction in cell death at 5 uM incubated for 12 hrs under hypoxic simulated ischemia by propidium iodide exclusion assay. The data set is classed as functional.
For data set [1], the system named is Right cardiac atrium. Kind of data set: Increase in absolute refractory period in Guinea pig right atria at 100 uM incubated for 30 mins by electrogram. Type of data set: functional. The note with it: Cavia porcellus.
The species entered for a further data set is Cavia porcellus. Kind of data set: Effect on papillary muscle refractory period in Guinea pig at 100 uM by electrogram. Type of data set: functional, tissue-based.
The subject of data set [2] is Right cardiac atrium. Kind of data set: Reduction in resting atrial rate in Guinea pig right atria at 100 uM by electrogram (reference value: 175 to 200 bpm). Type of data set: functional.
For data set [3], the system named is RAW264.7. Nature of the data set: Antioxidant activity in phorbol 12,13-dibutyrate stimulated mouse RAW264.7 cells assessed as inhibition of ROS generation by measuring the reduction in photon emission at 100 uM incubated for 60 mins by L-012-enhanced chemiluminescence assay relative to control. Type of data set: functional.
The nature of data set [4]: Toxicity in rat H9c2(2-1) cells assessed as cell death at 10 uM incubated for 12 hrs under hypoxic simulated ischemia by propidium iodide exclusion assay. The data set is classed as cell-based.
A further data set deals with Erythrocyte. Nature of the data set: Antioxidant activity in C57Bl/6 mouse erythrocyte assessed as increase in AAPH-induced hemolysis time incubated for 30 mins by spectrophotometry. Type of data set: functional, cell-based.
In the next data set the test system is Aorta. Nature of the data set: Antioxidant activity in NADPH stimulated Sprague-Dawley rat aorta assessed as reduction in photon emission at 10 uM incubated for 45 mins by lucigenin-enhanced chemiluminescence assay. The data set is classed as functional, tissue-based.
Data set [5] relates to RAW264.7. Nature of the data set: Cytotoxicity against mouse RAW264.7 cells assessed as cell viability at 100 uM by MTS assay. Type of data set: cell-based. Conditions: raw264.7, 100 µM.
Data set [6] can be described thus: as §1. The data set is classed as functional. Set-up: scale not given: the % may be the effect or the level left.

Active and inactive are the calls of the source. The calls are words filed in the database; no cut-off is given here.

On to `Cc1cccc(C)c1OCC(C)NCc1ccc2c(c1)C(C)(C)N(O)C2(C)C` (stereo not drawn), for which the outcome in the data set filed under Rattus norvegicus, with Right cardiac atrium [1] and in the data set with Right cardiac atrium [2] (Cavia porcellus) was Active. Moreover, the result in the data set filed under Cavia porcellus and with RAW264.7 [3] was inactive. Moreover, the Activity result in data set [4] is “Toxic”.

On to `Cc1cccc(C)c1OCC(C)N` (stereo not drawn) [MEXILETINE], for which the outcome in the data set listed under Rattus norvegicus, with Erythrocyte, in the data set on Aorta and in the data set with RAW264.7 [3] was inactive. In addition, the result in the data set with Right cardiac atrium [1] and in the data set filed under Cavia porcellus was Active. The Activity in the data set on Right cardiac atrium [2] came out at 15 bpm.

Turning to `CC1(C)c2ccccc2C(C)(C)N1[O]`, the result in the data set with Erythrocyte and in the data set with Aorta was inactive. The Activity entry with RAW264.7 [5] was “Non-toxic”.

As for `CC1(C)c2ccccc2C(C)(C)N1O`, the outcome with Erythrocyte and in the data set with Aorta was inactive. The Activity entry in the data set on RAW264.7 [5] was “Non-toxic”.

Regarding `CC(COc1c(Cl)cccc1Cl)NCc1ccc2c(c1)C(C)(C)N(O)C2(C)C` (stereo not drawn), in the data set on RAW264.7 [5], the Activity entry is on record as “Non-toxic”.

Take `CC(COc1c(Cl)cccc1Cl)NCc1ccc2c(c1)C(C)(C)NC2(C)C` (stereo not drawn): in the data set on RAW264.7 [5], the Activity entry is recorded as “Non-toxic”.

For the compound `Cc1cccc(C)c1OCC(C)NCc1ccc2c(c1)C(C)(C)N([O])C2(C)C` (stereo not drawn), the outcome in the data set on Right cardiac atrium [1] and in the data set on Right cardiac atrium [2] (Cavia porcellus) was Active. Besides, the result in the data set listed under Cavia porcellus and with RAW264.7 [3] was inactive.

For the compound `CC(COc1c(Cl)cccc1Cl)NCc1ccc2c(c1)C(C)(C)N([O])C2(C)C` (stereo not drawn), the outcome in the data set listed under Rattus norvegicus and in the data set with Right cardiac atrium [2] (Cavia porcellus) was Active. In addition, the results for the Activity entry (in the data set with RAW264.7 [5]; in [4]) were “Non-toxic” and “Toxic”, respectively. Besides, the result with Right cardiac atrium [1] and in the data set filed under Cavia porcellus was inactive.

Turning to `CC1(C)NC(C)(C)c2ccccc21`, the result in the data set with Erythrocyte and with Aorta was inactive. Moreover, the Activity entry in the data set with RAW264.7 [5] was “Non-toxic”.

Regarding `Cc1cccc(C)c1OCC(C)NCc1ccc2c(c1)C(C)(C)NC2(C)C` (stereo not drawn), the Activity in data set [6] is given as 55%; in data set [4], “Toxic”. In addition, the outcome in the data set on Right cardiac atrium [1] and with Right cardiac atrium [2] (Cavia porcellus) was Active. Also, the outcome in the data set filed under Cavia porcellus and in the data set on RAW264.7 [3] was inactive.

Turning to `CC(N)COc1c(Cl)cccc1Cl` (stereo not drawn), in the data set on Right cardiac atrium [1], the outcome was Active. Further, the result in the data set filed under Cavia porcellus was inactive. In the data set with Right cardiac atrium [2], this compound displayed an Activity of 15 bpm.
